According to patent US12660819B2, “Herbicidal derivatives” (SYNGENTA CROP PROTECTION AG, priority 2020, dated 2026):

Tests used:
Assay type in all cases: in vivo
[1] = test system: Abutilon theophrasti (ABUTH); experiment: Post-emergence Test (glasshouse, percentage damage to the plant); settings: post-emergence spray, 1000 g/ha unless otherwise stated, evaluated after 13 days
Method in brief: (§1)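 Spray treatment of sown glasshouse pots at 1000 g/ha (default rate), vehicle acetone/water 50:50 plus 0.5% Tween 20. Read-out: percentage damage after 13 days, converted to a score where 5 denotes 81-100% and 1 denotes 0-20%.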

[2] = test system: Amaranthus retoflexus (AMARE); experiment: as above; settings: post-emergence spray, 1000 g/ha unless otherwise stated, evaluated after 13 days
Method in brief: as §1

[3] = test system: Echinochloa crus-galli (ECHCG); experiment: as above; settings: post-emergence spray, 1000 g/ha unless otherwise stated, evaluated after 13 days
Method in brief: as §1

[4] = test system: Ipomoea hederacea (IPOHE); experiment: as above; settings: post-emergence spray, 1000 g/ha unless otherwise stated, evaluated after 13 days
Method in brief: (§2)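 Sown pots; spray 1000 g/ha (unless stated) in acetone/water 50:50 + 0.5% Tween 20; glasshouse 24/16 °C, 14 h light, 65% RH; watered twice daily; % damage read at 13 days, scored 1–5.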

Setaria faberi (SETFA) [5] = experiment: as above; settings: post-emergence spray, 1000 g/ha unless otherwise stated, evaluated after 13 days
Method in brief: as §2

Zea mays (ZEAMX) [6] = experiment: as above; settings: post-emergence spray, 1000 g/ha unless otherwise stated, evaluated after 13 days
Method in brief: as §2

[7] = test system: Amaranthus retoflexus (AMARE); experiment: Pre-emergence Test (glasshouse, percentage damage to the plant); settings: 1000 g/ha unless otherwise stated, five-point scale
Setaria faberi (SETFA) [8] = experiment: as above; settings: 1000 g/ha unless otherwise stated, five-point scale
[9] = test system: Echinochloa crus-galli (ECHCG); experiment: as above; settings: 1000 g/ha unless otherwise stated, five-point scale
[10] = test system: Ipomoea hederacea (IPOHE); experiment: as above; settings: 1000 g/ha unless otherwise stated, five-point scale
[11] = test system: Abutilon theophrasti (ABUTH); experiment: as above; settings: 1000 g/ha unless otherwise stated, five-point scale
Zea mays (ZEAMX) [12] = experiment: as above; settings: 1000 g/ha unless otherwise stated, five-point scale

| Structure (SMILES) | Post-emergence Test ABUTH, percentage damage to the plant (five-point scale) [1] | Post-emergence Test AMARE, percentage damage to the plant (five-point scale) [2] | Post-emergence Test ECHCG, percentage damage to the plant (five-point scale) [3] | Post-emergence Test IPOHE, percentage damage to the plant (five-point scale) [4] | Post-emergence Test SETFA, percentage damage to the plant (five-point scale) (Setaria faberi (SETFA) [5]) | Post-emergence Test ZEAMX, percentage damage to the plant (five-point scale) (Zea mays (ZEAMX) [6]) | percentage damage to the plant, AMARE [7] | percentage damage to the plant, SETFA (Setaria faberi (SETFA) [8]) | percentage damage to the plant, ECHCG [9] | percentage damage to the plant, IPOHE [10] | percentage damage to the plant, ABUTH [11] | percentage damage to the plant, ZEAMX (Zea mays (ZEAMX) [12]) |
| --- | --- | --- | --- | --- | --- | --- | --- | --- | --- | --- | --- | --- |
| CCn1c(C)c(-c2cc(C)cs2)c(=O)c(C(=O)O)c1-c1ccc(Cl)c(Cl)c1 [Compound 86, 2-(3,4-dichlorophenyl)-1-ethyl-6-methyl-5-(4-methyl-2-thienyl)-4-oxo-pyridine-3-carboxylic acid] | 4 (4=61-80%) | 4 (4=61-80%) | 3 (3=41-60%) | 3 (3=41-60%) | 4 (4=61-80%) | 1 (1=0-20%) | 4 (4=61-80%) | 5 (5=81-100%) | 3 (3=41-60%) | 1 (1=0-20%) | 2 (2=21-40%) | 1 (1=0-20%) |
| CCn1c(C)c(-c2cc(C)cs2)c(=O)c(C(=O)O)c1-c1ccc(Cl)cc1 [Compound 167, 2-(4-chlorophenyl)-1-ethyl-6-methyl-5-(4-methyl-2-thienyl)-4-oxo-pyridine-3-carboxylic acid] | 4 (4=61-80%) | 0 | 1 (1=0-20%) | 3 (3=41-60%) | 2 (2=21-40%) | 1 (1=0-20%) | 1 (1=0-20%) | 2 (2=21-40%) | 0 | 1 (1=0-20%) | 3 (3=41-60%) | 3 (3=41-60%) |
| CCn1c(C)c(C2=CCCC2)c(=O)c(C(=O)O)c1-c1ccc(Cl)c(Cl)c1 [Compound 68, 5-(cyclopenten-1-yl)-2-(3,4-dichlorophenyl)-1-ethyl-6-methyl-4-oxo-pyridine-3-carboxylic acid] | 3 (3=41-60%) | 1 (1=0-20%) | 2 (2=21-40%) | 3 (3=41-60%) | 3 (3=41-60%) | 1 (1=0-20%) | 1 (1=0-20%) | 5 (5=81-100%) | 1 (1=0-20%) | 2 (2=21-40%) | 1 (1=0-20%) | 1 (1=0-20%) |
| CCn1c(C)c(-c2ccc(OC)c(F)c2)c(=O)c(C(=O)O)c1-c1ccc(Cl)c(Cl)c1 [Compound 102, 2-(3,4-dichlorophenyl)-1-ethyl-5-(3-fluoro-4-methoxy-phenyl)-6-methyl-4-oxo-pyridine-3-carboxylic acid] | 3 (3=41-60%) | 3 (3=41-60%) | 3 (3=41-60%) | 3 (3=41-60%) | 4 (4=61-80%) | 1 (1=0-20%) | 2 (2=21-40%) | 4 (4=61-80%) | 2 (2=21-40%) | 3 (3=41-60%) | 3 (3=41-60%) | 1 (1=0-20%) |
| CCn1c(C)c(-c2ccc(Cl)cc2)c(=O)c(C(=O)O)c1-c1ccc(Cl)cc1 [Compound 138, 2,5-bis(4-chlorophenyl)-1-ethyl-6-methyl-4-oxo-pyridine-3-carboxylic acid] | 3 (3=41-60%) | 1 (1=0-20%) | 2 (2=21-40%) | 1 (1=0-20%) | 3 (3=41-60%) | 0 | 5 (5=81-100%) | 5 (5=81-100%) | 3 (3=41-60%) | 1 (1=0-20%) | 3 (3=41-60%) | 1 (1=0-20%) |
| CCn1c(C)c(-c2ccc(Cl)s2)c(=O)c(C(=O)O)c1-c1ccc(Cl)cc1 [Compound 166, 2-(4-chlorophenyl)-5-(5-chloro-2-thienyl)-1-ethyl-6-methyl-4-oxo-pyridine-3-carboxylic acid] | 3 (3=41-60%) | 2 (2=21-40%) | 2 (2=21-40%) | 1 (1=0-20%) | 3 (3=41-60%) | 1 (1=0-20%) | 1 (1=0-20%) | 0 | 0 | 1 (1=0-20%) | 1 (1=0-20%) | 0 |
| CCn1c(C)c(-c2cc(F)cc(Cl)c2)c(=O)c(C(=O)O)c1-c1ccc(Cl)c(Cl)c1 [Compound 62, 5-(3-chloro-5-fluoro-phenyl)-2-(3,4-dichlorophenyl)-1-ethyl-6-methyl-4-oxo-pyridine-3-carboxylic acid] | 2 (2=21-40%) | 1 (1=0-20%) | 1 (1=0-20%) | 2 (2=21-40%) | 1 (1=0-20%) | 1 (1=0-20%) | 1 (1=0-20%) | 2 (2=21-40%) | 1 (1=0-20%) | 1 (1=0-20%) | 1 (1=0-20%) | 1 (1=0-20%) |
| CCn1c(C)c(-c2ccc(Cl)cc2C)c(=O)c(C(=O)O)c1-c1ccc(Cl)c(Cl)c1 [Compound 156, 5-(4-chloro-2-methyl-phenyl)-2-(3,4-dichlorophenyl)-1-ethyl-6-methyl-4-oxo-pyridine-3-carboxylic acid] | 4 (4=61-80%) | 3 (3=41-60%) | 4 (4=61-80%) | 4 (4=61-80%) | 4 (4=61-80%) | 4 (4=61-80%) | 1 (1=0-20%) | 4 (4=61-80%) | 5 (5=81-100%) | 1 (1=0-20%) | 2 (2=21-40%) | 0 |
